Assays:
α1 = test: In vivo test: return of the eye to a normal position (xylazine-induced exophthalmia) in rats, α1-antagonist potential; parameters: species or system rat
Protocol: (§1) In vivo α2 -antagonism test
(§2) The α2 -antagonist properties of the compounds of the invention were determined according to a method described by F. Colpaert et al., (DRUG Development Research 7, 125-140, 1986) by measuring the effects produced by those compounds on the loss of the correcting reflex and exophthalmia induced in rats by xylazine, a known agonist of α2-adrenergic receptors in the central nervous system.
(§3) The reestablishment of the righting reflex measures the α2 -antagonist potential of the compounds, whilst the return of the eye to a normal position measures the α1 -antagonist potential.

α2-adrenergic receptors = test: In vivo α2-antagonism test: reestablishment of the righting reflex lost through xylazine in rats; parameters: species or system rat; settings: xylazine-induced loss of righting reflex
Protocol: as §1, §2, §3

SMILES: Cl.FC(F)(F)C(Cc1c[nH]cn1)c1ccccc1 (centres unmarked) [Example 2, 4-(2-Phenyl-3,3,3-trifluoropropan-1-yl)-imidazole hydrochloride]
- ED50 (α1) (α1): higher than 10 mg/kg
- ED50 (α2) (α2-adrenergic receptors): 5 mg/kg
